Test results: US20170119776A1, “CHIRAL 2,5-DISUBSTITUTED CYCLOPENTANECARBOXYLIC ACID DERIVATIVES AND USE THEREOF” (BAYER PHARMA AKTIENGESELLSCHAFT, priority 2014, published 2017)

Key:
Format in all cases: biochemical
MMP-8 = biological target: T1, MMP-8 (Homo sapiens, UniProt P22894); assay: In vitro MMP-8 inhibition test
T1 construct: purchased R&D Systems 908-MP
From the text: (§1) The activity strength of the compounds according to the invention towards other MMPs (and therefore their selectivity) is likewise ascertained in in vitro inhibition tests. The MMP-mediated amidolytic cleavage of a suitable peptide substrate also leads here to a fluorescent light increase. The signal intensity of the fluorescent light is directly proportional to the enzyme activity. The active concentration of a test compound at which half of the enzyme is inhibited (50% signal intensity of the fluorescent light) is given as IC50 value.
(§2) Recombinant MMP-8 (R&D Systems, 908-MP) is chemically activated in accordance with the manufacturer's instructions using APMA. 1 μl of the test compound to be analysed (as a solution in DMSO, suitable concentrations e.g. 1 nM to 30 μM) is pipette into 24 μl of activated enzyme (final concentration e.g. 0.5 nM) in reaction buffer (50 mM Tris/HCl pH 7.5, 10 mM CaCl2, 150 mM NaCl, 0.05% Brij®-35) in a white 384-hole microtiter plate (MTP). The enzymatic reaction is started by adding the intramolecularly quenched substrate Mca-Pro-Leu-Gly-Leu-Dpa(Dnp)-Ala-Arg-NH2 (final concentration e.g. 10 μM; R&D Systems, ES-001), such that a total test volume of 50 μl results. The progress of the MMP-8 reaction is measured by measuring the fluorescence intensity (excitation 320 nm, emission 410 nm) over a suitable period (e.g. over 120 min at a temperature of 32° C.).
(§3) The IC50 values were determined for racemates and enantiomers from differently generated DMSO stock solutions. Whereas an automatically produced DMSO stock solution from the internal substance logistics was used for racemates by means of a standard method, in the case of enantiomers a freshly produced, manually prepared DMSO stock solution was used in each case for a more precise direct comparison of the enantiomers with one another.

MMP-14 = biological target: T2, MMP-14 (Homo sapiens, UniProt P50281); assay: In vitro MMP-14 inhibition test
T2 construct: purchased R&D Systems 918-MP
From the text: as §1
Recombinant MMP-14 (R&D Systems, 918-MP) is enzymatically activated in accordance with the manufacturer's instructions using recombinant furin (R&D Systems, 1503-SE). 1 μl of the test compound to be analysed (as a solution in DMSO, suitable concentrations e.g. 1 nM to 30 μM) is pipette into 24 μl of activated enzyme (final concentration e.g. 0.5 nM) in reaction buffer (50 mM Tris/HCl pH 7.5, 10 mM CaCl2, 150 mM NaCl, 0.05% Brij®-35) in a white 384-hole microtiter plate (MTP). The enzymatic reaction is started by adding the intramolecularly quenched substrate Mca-Lys-Pro-Leu-Gly-Leu-Dpa(Dnp)-Ala-Arg-NH2 (final concentration e.g. 5 μM; R&D Systems, ES-010), such that a total test volume of 50 μl results. The progress of the MMP-14 reaction is measured by measuring the fluorescence intensity (excitation 320 nm, emission 410 nm) over a suitable period (e.g. over 120 min at a temperature of 32° C.).
as §3

MMP-9 of the mouse = biological target: T3, MMP-9 of the mouse (Mus musculus, UniProt P41245); assay: In vitro MMP-9 inhibition test of the mouse
T3 construct: purchased R&D Systems 909-MP
From the text: as §1
as §2, with “Recombinant MMP-9 of the mouse” for “Recombinant MMP-8”, “Systems, 909-MP)” for “Systems, 908-MP)”, “is pipetted” for “is pipette”, “e.g. 0.1” for “e.g. 0.5”, “e.g. 5” for “e.g. 10”, “the MMP-9” for “the MMP-8”
(§4) Tables 3A and 3B below give the IC50 values from these tests for the inhibition of rodent MMPs for representative embodiment examples of the present invention and also for two structurally related comparison compounds from the prior art (as racemate and separated enantiomer)→(in part as average values from several independent individual determinations and rounded to two significant places). The IC50 values were determined for racemates and enantiomers from differently generated DMSO stock solutions. Whereas an automatically created DMSO stock solution from the internal substance logistics was used for racemates by means of a standard method, in the case of enantiomers, in each case a freshly produced, manually prepared DMSO stock solution was used for a more precise direct comparison of the enantiomers with one another.

MMP-12 of the mouse = biological target: T4, MMP-12 of the mouse (Mus musculus, UniProt P34960); assay: In vitro MMP-12 inhibition test of the mouse (standard / high-sensitivity)
T4 construct: purchased R&D Systems 3467-MP
From the text: as §1
Recombinant MMP-12 of the mouse (R&D Systems, 3467-MP) is autocatalytically activated in accordance with the manufacturer's instructions. 1 μl of the test compound to be analysed (as a solution in DMSO, suitable concentrations e.g. 1 nM to 30 μM) is pipetted into 24 μl of activated enzyme (final concentration e.g. 1 nM) in reaction buffer (50 mM Tris/HCl pH 7.5, 10 mM CaCl2, 150 mM NaCl, 0.05% Brij®-35) in a white 384-hole microtiter plate (MTP). The enzymatic reaction is started by adding the intramolecularly quenched substrate Mca-Lys-Pro-Leu-Gly-Leu-Dpa(Dnp)-Ala-Arg-NH2 (final concentration e.g. 5 μM; R&D Systems, ES-010), such that a total test volume of 50 μl results. The progress of the MMP-12 reaction is measured by measuring the fluorescence intensity (excitation 320 nm, emission 410 nm) over a suitable period (e.g. over 120 min at a temperature of 32° C.).
If subnanomolar IC values are produced for high-potency test substances in the above-described MMP-12 inhibition test of the mouse, then a modified test is used for their more precise determination. Here, a ten-fold lower enzyme concentration is used (final concentration e.g. 0.1 nM), in order to achieve an increased sensitivity of the test. The incubation time of the test is correspondingly chosen to be longer (e.g. 16 hours).
as §4

MMP-9 of the rat = biological target: T5, MMP-9 of the rat (Rattus norvegicus, UniProt P50282); assay: In vitro MMP-9 inhibition test of the rat
T5 construct: purchased R&D Systems 5427-MM
T5 sequence (P50282 108-708): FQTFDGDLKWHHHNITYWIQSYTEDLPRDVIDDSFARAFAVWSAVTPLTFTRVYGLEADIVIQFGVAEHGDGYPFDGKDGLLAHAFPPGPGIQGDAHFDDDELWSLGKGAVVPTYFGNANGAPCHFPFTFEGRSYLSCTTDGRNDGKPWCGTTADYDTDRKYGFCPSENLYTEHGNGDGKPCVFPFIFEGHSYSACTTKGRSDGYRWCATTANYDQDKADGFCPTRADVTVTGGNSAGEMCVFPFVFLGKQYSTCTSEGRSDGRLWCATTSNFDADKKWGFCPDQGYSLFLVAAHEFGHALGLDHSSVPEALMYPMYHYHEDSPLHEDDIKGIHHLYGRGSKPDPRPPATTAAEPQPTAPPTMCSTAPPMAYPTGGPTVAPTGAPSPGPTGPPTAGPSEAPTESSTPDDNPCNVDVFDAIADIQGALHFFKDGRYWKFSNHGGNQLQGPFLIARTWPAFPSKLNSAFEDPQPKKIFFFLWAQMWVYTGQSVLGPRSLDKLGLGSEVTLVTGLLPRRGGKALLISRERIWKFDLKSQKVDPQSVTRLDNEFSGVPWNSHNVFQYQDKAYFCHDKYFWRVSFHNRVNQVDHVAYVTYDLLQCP

T3 sequence (P41245 108-730): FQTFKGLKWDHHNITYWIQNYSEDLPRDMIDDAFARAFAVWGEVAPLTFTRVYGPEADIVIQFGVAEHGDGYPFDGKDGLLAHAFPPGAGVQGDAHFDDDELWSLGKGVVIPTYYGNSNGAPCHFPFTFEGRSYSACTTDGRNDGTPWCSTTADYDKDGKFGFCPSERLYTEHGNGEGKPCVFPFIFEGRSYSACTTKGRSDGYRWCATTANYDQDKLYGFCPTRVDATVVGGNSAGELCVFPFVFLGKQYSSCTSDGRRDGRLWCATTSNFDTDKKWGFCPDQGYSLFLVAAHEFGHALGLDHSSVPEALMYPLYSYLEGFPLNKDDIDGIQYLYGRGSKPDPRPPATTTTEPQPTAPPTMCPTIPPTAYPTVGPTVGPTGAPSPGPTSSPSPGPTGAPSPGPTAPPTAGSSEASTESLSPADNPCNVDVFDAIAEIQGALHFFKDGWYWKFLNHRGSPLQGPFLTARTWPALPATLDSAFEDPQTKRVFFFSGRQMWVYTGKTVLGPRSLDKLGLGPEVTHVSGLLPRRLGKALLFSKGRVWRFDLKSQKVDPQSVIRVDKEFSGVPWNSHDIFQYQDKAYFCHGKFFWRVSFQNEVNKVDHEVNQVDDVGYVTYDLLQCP
T1 sequence (P22894 101-467): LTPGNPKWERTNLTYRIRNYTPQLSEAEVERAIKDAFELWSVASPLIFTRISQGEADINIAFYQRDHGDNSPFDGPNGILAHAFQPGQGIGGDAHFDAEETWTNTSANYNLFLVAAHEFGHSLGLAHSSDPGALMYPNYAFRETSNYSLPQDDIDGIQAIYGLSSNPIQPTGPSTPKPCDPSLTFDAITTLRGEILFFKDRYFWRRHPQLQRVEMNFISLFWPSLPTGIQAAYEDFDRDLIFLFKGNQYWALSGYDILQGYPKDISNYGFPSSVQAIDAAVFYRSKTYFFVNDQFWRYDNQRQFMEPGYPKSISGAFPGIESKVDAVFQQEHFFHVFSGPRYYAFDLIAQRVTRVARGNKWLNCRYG
T4 sequence (P34960 110-473): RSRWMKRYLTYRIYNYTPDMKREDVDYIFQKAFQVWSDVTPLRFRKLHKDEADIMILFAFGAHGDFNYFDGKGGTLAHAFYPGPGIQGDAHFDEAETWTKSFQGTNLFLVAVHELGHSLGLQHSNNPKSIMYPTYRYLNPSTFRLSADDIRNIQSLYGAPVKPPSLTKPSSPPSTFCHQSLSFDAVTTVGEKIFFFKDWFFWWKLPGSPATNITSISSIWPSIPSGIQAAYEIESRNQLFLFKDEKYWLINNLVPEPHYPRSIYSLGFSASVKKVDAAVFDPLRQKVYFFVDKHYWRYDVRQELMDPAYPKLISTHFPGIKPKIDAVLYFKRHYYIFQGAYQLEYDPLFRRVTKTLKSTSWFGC

Compound	IC50 (MMP-8) [nM]	IC50 (MMP-14) [nM]	IC50 (MMP-9 of the mouse) [nM]	IC50 (MMP-12 of the mouse) [nM]	IC50 (MMP-9 of the rat) [nM]
O=C(O)[C@H]1[C@H](Cn2nnc3ccccc3c2=O)CC[C@@H]1C(=O)c1ccc(-c2ccc(Cl)cc2)cc1 (racemic) [Comparative Example A-1, (1RS,2RS,5SR)-2-[(4′-chlorobiphenyl-4-yl)carbonyl]-5-[(4-oxo-1,2,3-benzotriazin-3(4H)-yl)methyl]cyclopentanecarboxylic acid (racemate)]	< 0.61	2.9	4.9	< 0.61	4.6
CCCCCOc1ccc(C(=O)CC(CCn2nnc3ccccc3c2=O)C(=O)O)cc1 (racemic) [Comparative Example B-1, (+/−)-4-Oxo-2-[2-(4-oxo-1,2,3-benzotriazin-3(4H)-yl)ethyl]-4-[4-(pentyloxy)phenyl]butanoic acid (racemate)]	706	3800	2700	32	3200
O=C(O)[C@H]1[C@H](Cn2nnc3ccccc3c2=O)CC[C@@H]1C(=O)c1ccc(OCc2ccccc2)cc1 (racemic) [Example 1, (+/−)-(1RS,2RS,5SR)-2-[4-(Benzyloxy)benzoyl]-5-[(4-oxo-1,2,3-benzotriazin-3(4H)-yl)methyl]cyclopentanecarboxylic acid (racemate)]	9.2	27	71	0.54	110
CCCCCOc1ccc(C(=O)CC(CCn2nnc3ccccc3c2=O)C(=O)O)cc1 (single isomer, unassigned; enantiomer 1) [Comparative Example B-2, (+)-4-Oxo-2-[2-(4-oxo-1,2,3-benzotriazin-3(4H)-yl)ethyl]-4-[4-(pentyloxy)phenyl]butanoic acid (enantiomer 1)]	275	1300	905	18	1350
O=C(O)[C@@H]1[C@@H](Cn2nnc3ccccc3c2=O)CC[C@H]1C(=O)c1ccc(-c2ccc(Cl)cc2)cc1 (single isomer, unassigned; enantiomer 2) [Comparative Example A-3, (1RS,2RS,5SR)-2-[(4′-Chlorobiphenyl-4-yl)carbonyl]-5-[(4-oxo-1,2,3-benzotriazin-3(4H)-yl)methyl]cyclopentanecarboxylic acid (enantiomer 2)]	< 0.61	1.2	1.5	0.1	3.3
O=C(O)[C@H]1[C@H](Cn2nnc3ccccc3c2=O)CC[C@@H]1C(=O)c1ccc(OCc2ccccc2)cc1 [Example 2, (+)-(1S,2S,5R)-2-[4-(Benzyloxy)benzoyl]-5-[(4-oxo-1,2,3-benzotriazin-3(4H)-yl)methyl]cyclopentanecarboxylic acid]	10.1	15	27.5	0.13	46.5
